From patent US10238638B2, “Benzothiazole and benzothiophene compounds” (Bristol-Myers Squibb Company, priority 2015, dated 2019) come the findings set out here.

The term IC50 denotes the concentration at which inhibition is half-maximal.

Each structure is given as a SMILES string.

PAR4, sequence (Q96RI0 18-385): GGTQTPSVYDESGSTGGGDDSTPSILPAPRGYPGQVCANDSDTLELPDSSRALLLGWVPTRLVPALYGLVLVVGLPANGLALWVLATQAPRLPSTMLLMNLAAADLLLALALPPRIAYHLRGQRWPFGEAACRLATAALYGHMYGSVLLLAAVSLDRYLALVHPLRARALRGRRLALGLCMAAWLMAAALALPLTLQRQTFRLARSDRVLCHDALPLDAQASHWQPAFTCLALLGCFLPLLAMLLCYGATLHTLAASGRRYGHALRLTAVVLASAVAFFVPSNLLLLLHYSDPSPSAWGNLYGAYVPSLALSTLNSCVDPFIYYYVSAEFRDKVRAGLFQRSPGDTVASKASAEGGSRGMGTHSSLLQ

The experiment has as its target PAR4 (Homo sapiens (Human), UniProt Q96RI0). The experiment can be described thus: FLIPR assay in PAR4-expressing HEK293 cells (calcium mobilization). Type of experiment: cell-based. Particulars: H-Ala-Phe(4-F)-Pro-Gly-Trp-Leu-Val-Lys-Asn-Gly-NH2-induced calcium mobilization, PAR4 antagonist activity. The source says: The FLIPR assay is an exemplary in vitro assay for measuring the activity of the PAR4 antagonists of the present invention. In this assay, intracellular calcium mobilization is induced in PAR4 expressing cells by a PAR4 agonist and calcium mobilization is monitored.
HEK293 cells stably expressing PAR4 were generated by a standard method of transfection of human PAR4 (F2R23) cDNA expression vector and selected based on PAR4 protein expression or mRNA expression. […] Therefore, the same cells were also used to determine selectivity against PAR1 and agonist activity for both receptors.
FLIPR-based calcium mobilization assay in HEK293 cells was used to measure PAR4 antagonism, agonism, and selectivity against PAR1. […] Counter screens for agonist activity and PAR1 antagonist activity were also performed. Briefly, PAR1/PAR4-expressing HEK293 cells were grown in DMEM (Life Technology, Grand Island, N.Y.) containing 10% heat-inactivated FBS, 1% Penicillin-Streptomycin, 10 μg/mL blasticidin, and 100 μg/mL Zeocin at 37° C. with 5% CO2. Cells were plated overnight prior to the experiment in a black 384-well Purecoat Amine clear bottom plate (Becton Dickinson Biosciences, San Jose, Calif.) at 10,000 cells/well in 30 μL growth medium and incubated in a humidified chamber at 37° C. with 5% CO2 overnight. Prior to compound addition, the cell medium was replaced with 40 μL of 1× calcium and magnesium-containing Hank's Balanced Saline Solution (HBSS) (with 20 mM HEPES) and 1:1000 diluted fluorescent calcium indicator (Codex Biosolutions, Gaithersburg, Md.). After a 30 minute incubation period at 37° C. and a further 30 minute incubation and equilibration period at room temperature, 20 μL test compound (diluted in 1×HBSS buffer) was added at various concentrations at 0.17% dimethyl sulfoxide (DMSO) final concentration. Changes in fluorescence intensity were measured using a Functional Drug Screening System (FDSS, Hamamatsu, Japan) to determine agonist activities. The cells were then incubated for 30 minutes at room temperature followed by addition of 20 μL of agonist peptide for antagonist activity measurement. […] Compound potency was derived from 11-point concentration-response curves.
Background: A change in cytosolic calcium serves as a functional read-out for many receptors and channels.
Turning to `COc1cc(OCc2csc(-c3ccc(C(=O)N(CCO)C(C)(C)C)cc3)n2)c2sc(-c3cn4nc(C5CC5)sc4n3)nc2c1` [Example 29, N-(tert-Butyl)-4-(4-(((2-(2-cyclopropylimidazo[2,1-b][1,3,4]thiadiazol-6-yl)-5-methoxybenzo[d]thiazol-7-yl)oxy)methyl)thiazol-2-yl)-N-(2-hydroxyethyl)benzamide], the IC50 is 80 µM. For `COc1cc(OCc2nc(-c3ccc(C(=O)N4CCC[C@H](O)C4)cc3)sc2C)c2sc(-c3cn4nc(C)sc4n3)nc2c1` [Example 38, (S)-(3-Hydroxypiperidin-1-yl)(4-(4-(((5-methoxy-2-(2-methylimidazo[2,1-b][1,3,4]thiadiazol-6-yl)benzo[d]thiazol-7-yl)oxy)methyl)-5-methylthiazol-2-yl)phenyl)methanone] the value was 1.6 µM.

Regarding `COc1cc(OCc2csc(-c3ccc(C(=O)N(C)C)cc3)n2)c2sc(-c3cn4nc(C(C)(F)F)sc4n3)nc2c1` [Example 18, 4-(4-(((2-(2-(1,1-difluoroethyl)imidazo[2,1-b][1,3,4]thiadiazol-6-yl)-5-methoxybenzo[d]thiazol-7-yl)oxy)methyl)thiazol-2-yl)-N,N-dimethylbenzamide], the half-maximal inhibitory concentration (IC50) was 5.1 µM.

In the case of `COc1cc(OCc2csc(-c3ccccc3)n2)c2sc(-c3cn4nc(C)ccc4n3)nc2c1` [Example 45, 5-Methoxy-2-(6-methylimidazo[1,2-b]pyridazin-2-yl)-7-((2-phenylthiazol-4-yl)methoxy)benzo[d]thiazole], the half-inhibitory concentration (IC50) amounted to 1.8 µM. For `COc1cc(OCc2nc(-c3ccc(C(=O)N(C)[C@H]4CCOC4)cc3)sc2C)c2sc(-c3cn4nc(C)sc4n3)nc2c1` [Example 39, (S)-4-(4-(((5-Methoxy-2-(2-methylimidazo[2,1-b][1,3,4]thiadiazol-6-yl)benzo[d]thiazol-7-yl)oxy)methyl)-5-methylthiazol-2-yl)-N-methyl-N-(tetrahydrofuran-3-yl)benzamide] the value was 1.8 µM; for `COc1cc(OCc2csc(-c3ccc(C(=O)N(C)C)cc3)n2)c2sc(-c3cn4nc(C5CC5)sc4n3)nc2c1` [Example 28, 4-(4-(((2-(2-Cyclopropylimidazo[2,1-b][1,3,4]thiadiazol-6-yl)-5-methoxybenzo[d]thiazol-7-yl)oxy)methyl)thiazol-2-yl)-N,N-dimethylbenzamide], 3.7 µM; for `COc1cc(OCc2csc(-c3ccc(C(=O)OC(C)(C)C)cc3)n2)c2sc(-c3cn4nc(C)sc4n3)nc2c1` [Example 1, tert-Butyl 4-(4-(((5-methoxy-2-(2-methylimidazo[2,1-b][1,3,4]thiadiazol-6-yl)benzo[d]thiazol-7-yl)oxy)methyl)thiazol-2-yl)benzoate], 2.4 µM. The figure for `COc1cc(OCc2csc(N3CCOCC3)n2)c2sc(-c3cn4nc(C)ccc4n3)nc2c1` [Example 46, 4-(4-(((5-Methoxy-2-(6-methylimidazo[1,2-b]pyridazin-2-yl)benzo[d]thiazol-7-yl)oxy)methyl)thiazol-2-yl)morpholine] is 2.5 µM; for `COc1cc(OCc2csc(-c3ccc(C(=O)O)cc3)n2)c2sc(-c3cn4nc(C)sc4n3)nc2c1` [Example 2, 4-(4-(((5-Methoxy-2-(2-methylimidazo[2,1-b][1,3,4]thiadiazol-6-yl)benzo[d]thiazol-7-yl)oxy)methyl)thiazol-2-yl)benzoic acid] it is 45 µM. Turning to `COc1cc(OCc2csc(-c3ccc(C(=O)N4CCC(C)(CO)CC4)cc3)n2)c2sc(-c3cn4nc(C)sc4n3)nc2c1` [Example 67], the IC50 was 0.93 µM.

Turning to `COc1cc(OCc2csc(-c3ccc(C(=O)N4CCC[C@H](O)C4)cc3)n2)c2sc(-c3cn4nc(C)sc4n3)nc2c1` [Example 4], the IC50 is 4.2 µM. The figure for `COc1cc(OCc2csc(-c3ccc(C(=O)N(C)[C@H]4CCOC4)cc3)n2)c2sc(-c3cn4nc(C)ccc4n3)nc2c1` [Example 47, (S)-4-(4-(((5-Methoxy-2-(6-methylimidazo[1,2-b]pyridazin-2-yl)benzo[d]thiazol-7-yl)oxy)methyl)thiazol-2-yl)-N-methyl-N-(tetrahydrofuran-3-yl)benzamide] is 6.4 µM; for `COc1cc(OCc2csc(-c3ccc(C(=O)O)cc3)n2)c2sc(-c3cn4nc(C(C)(F)F)sc4n3)nc2c1` [Example 14, 4-(4-(((2-(2-(1,1-Difluoroethyl)imidazo[2,1-b][1,3,4]thiadiazol-6-yl)-5-methoxybenzo[d]thiazol-7-yl)oxy)methyl)thiazol-2-yl)benzoic acid] it is 87 µM. Consider `COc1cc(OCc2csc(-c3ccc(C(=O)N(C)C4CCOCC4)cc3)n2)c2sc(-c3cn4nc(C)sc4n3)nc2c1` [Example 10, 4-(4-(((5-Methoxy-2-(2-methylimidazo[2,1-b][1,3,4]thiadiazol-6-yl)benzo[d]thiazol-7-yl)oxy)methyl)thiazol-2-yl)-N-methyl-N-(tetrahydro-2H-pyran-4-yl)benzamide], for which the IC50 was 0.98 µM. On to `COc1cc(OCc2csc(-c3ccc(C(=O)N(C)[C@H]4CCOC4)cc3)n2)c2sc(-c3cn4nc(C(C)(F)F)sc4n3)nc2c1` [Example 15, (S)-4-(4-(((2-(2-(1,1-Difluoroethyl)imidazo[2,1-b][1,3,4]thiadiazol-6-yl)-5-methoxybenzo[d]thiazol-7-yl)oxy)methyl)thiazol-2-yl)-N-methyl-N-(tetrahydrofuran-3-yl)benzamide], for which the half-inhibitory concentration (IC50) was 3.7 µM. The figure for `COc1cc(OCc2csc(-c3ccc(C(=O)N(C)C)cc3)n2)c2sc(-c3cn4nc(C)ccc4n3)nc2c1` [Example 44, 4-(4-(((5-Methoxy-2-(6-methylimidazo[1,2-b]pyridazin-2-yl)benzo[d]thiazol-7-yl)oxy)methyl)thiazol-2-yl)-N,N-dimethylbenzamide] is 2.6 µM.

`CCc1nn2cc(-c3nc4cc(OC)cc(OCc5csc(-c6ccc(C(=O)N7CCC(CCO)CC7)cc6)n5)c4s3)nc2s1` [Example 36, (4-(4-(((2-(2-Ethylimidazo[2,1-b][1,3,4]thiadiazol-6-yl)-5-methoxybenzo[d]thiazol-7-yl)oxy)methyl)thiazol-2-yl)phenyl)(4-(2-hydroxyethyl)piperidin-1-yl)methanone]: the half-inhibitory concentration (IC50) came out at 1.3 µM. `COc1cc(OCc2csc(-c3ccc(C(=O)N(C)[C@H]4CCOC4)cc3)n2)c2sc(-c3cn4nc(C5CC5)sc4n3)nc2c1` [Example 25, (S)-4-(4-(((2-(2-Cyclopropylimidazo[2,1-b][1,3,4]thiadiazol-6-yl)-5-methoxybenzo[d]thiazol-7-yl)oxy)methyl)thiazol-2-yl)-N-methyl-N-(tetrahydrofuran-3-yl)benzamide]: the IC50 came out at 2.6 µM. `COc1cc(OCc2csc(-c3ccc(C(=O)N4CCC[C@H](O)C4)cc3)n2)c2sc(-c3cn4nc(C(C)(F)F)sc4n3)nc2c1` [Example 16, (S)-(4-(4-(((2-(2-(1,1-Difluoroethyl)imidazo[2,1-b][1,3,4]thiadiazol-6-yl)-5-methoxybenzo[d]thiazol-7-yl)oxy)methyl)thiazol-2-yl)phenyl)(3-hydroxypiperidin-1-yl)methanone]: the half-inhibitory concentration (IC50) came out at 15 µM. As for `COc1cc(OCc2nc(-c3ccc(C(=O)NCC(C)(C)CO)cc3)sc2C)c2sc(-c3cn4nc(C)sc4n3)nc2c1` [Example 40, N-(3-Hydroxy-2,2-dimethylpropyl)-4-(4-(((5-methoxy-2-(2-methylimidazo[2,1-b][1,3,4]thiadiazol-6-yl)benzo[d]thiazol-7-yl)oxy)methyl)-5-methylthiazol-2-yl)benzamide], the 50% inhibitory concentration (IC50) turned out to be 1.6 µM. For `COc1cc(OCc2csc(-c3ccc(C(=O)N4CCC[C@H](O)C4)cc3)n2)c2sc(-c3cn4nc(C)ccc4n3)nc2c1` [Example 48, (S)-(3-Hydroxypiperidin-1-yl)(4-(4-(((5-methoxy-2-(6-methylimidazo[1,2-b]pyridazin-2-yl)benzo[d]thiazol-7-yl)oxy)methyl)thiazol-2-yl)phenyl)methanone], the IC50 was determined as 9.9 µM. For `CCc1nn2cc(-c3nc4cc(OC)cc(OCc5csc(-c6ccc(C(=O)OC(C)(C)C)cc6)n5)c4s3)nc2s1` [Example 31, tert-Butyl 4-(4-(((2-(2-ethylimidazo[2,1-b][1,3,4]thiadiazol-6-yl)-5-methoxybenzo[d]thiazol-7-yl)oxy)methyl)thiazol-2-yl)benzoate] the value was 2 µM. In the case of `COc1cc(OCc2csc(-c3ccc(C(=O)N4CCOC[C@H]4CO)cc3)n2)c2sc(-c3cn4nc(C)sc4n3)nc2c1` [Example 9, (R)-(3-(Hydroxymethyl)morpholino)(4-(4-(((5-methoxy-2-(2-methylimidazo[2,1-b][1,3,4]thiadiazol-6-yl)benzo[d]thiazol-7-yl)oxy)methyl)thiazol-2-yl)phenyl)methanone], the IC50 was 0.33 µM.
